Tests used:
Carbonic anhydrase 9 = Carbonic anhydrase 9 (Homo sapiens, UniProt Q16790); test: Inhibition of recombinant human carbonic anhydrase 9 incubated for 15 mins prior to testing measured for 10 to 100 secs by phenol red-based stopped-flow CO2 hydration assay
HepG2 [1] = test: Cytotoxicity against human HepG2 cells assessed as reduction in cell viability irradiated with 8 Gy gamma radiation and measured after 24 hrs by MTT assay; type: functional, cell-based; conditions: HepG2, light or radiation study
WI-38 [2] = test: Cytotoxicity against human WI-38 cells assessed as reduction in cell viability irradiated with 8 Gy gamma radiation and measured after 24 hrs by MTT assay; type: cell-based; conditions: WI-38, light or radiation study
MCF7 [3] = test: Cytotoxicity against human MCF7 cells assessed as reduction in cell viability irradiated with 8 Gy gamma radiation and measured after 24 hrs by MTT assay; type: functional, cell-based; conditions: MCF7, light or radiation study
HCT-116 [4] = test: Cytotoxicity against human HCT-116 cells assessed as reduction in cell viability irradiated with 8 Gy gamma radiation and measured after 24 hrs by MTT assay; type: functional, cell-based; conditions: HCT-116, light or radiation study
WI-38 [5] = test: Cytotoxicity against human WI-38 cells assessed as reduction in cell viability by MTT assay; type: cell-based
MCF7 [6] = test: Cytotoxicity against human MCF7 cells assessed as reduction in cell viability by MTT assay; type: functional, cell-based
HCT-116 [7] = test: Cytotoxicity against human HCT-116 cells assessed as reduction in cell viability by MTT assay; type: functional, cell-based
HepG2 [8] = test: Cytotoxicity against human HepG2 cells assessed as reduction in cell viability by MTT assay; type: functional, cell-based

Compound | Ki (Carbonic anhydrase 9) | further results
COc1cc(NC(=O)CSc2nc3ccc(I)cc3c(=O)n2-c2ccc(S(N)(=O)=O)cc2)cc(OC)c1 | 29.1 nM | 
CCc1ccc(NC(=O)CSc2nc3ccc(I)cc3c(=O)n2-c2ccc(S(N)(=O)=O)cc2)cc1 | 67.3 nM | 
CCOc1ccc(NC(=O)CSc2nc3ccc(I)cc3c(=O)n2-c2ccc(S(N)(=O)=O)cc2)cc1 | 34.5 nM | 
Cc1ccc(NC(=O)CSc2nc3ccc(I)cc3c(=O)n2-c2ccc(S(N)(=O)=O)cc2)cc1 | 91.7 nM | 
Cc1cccc(NC(=O)CSc2nc3ccc(I)cc3c(=O)n2-c2ccc(S(N)(=O)=O)cc2)c1 | 244 nM | 
COc1ccc(NC(=O)CSc2nc3ccc(I)cc3c(=O)n2-c2ccc(S(N)(=O)=O)cc2)cc1 | 73.2 nM | 
COc1cc(NC(=O)CSc2nc3ccc(I)cc3c(=O)n2-c2ccc(S(N)(=O)=O)cc2)cc(OC)c1OC | 30.4 nM | 
NS(=O)(=O)c1ccc(-n2c(SCC(=O)Nc3ccccc3)nc3ccc(I)cc3c2=O)cc1 | 337 nM | 
Cc1ccccc1NC(=O)CSc1nc2ccc(I)cc2c(=O)n1-c1ccc(S(N)(=O)=O)cc1 | 429 nM | 
CCc1cccc(NC(=O)CSc2nc3ccc(I)cc3c(=O)n2-c2ccc(S(N)(=O)=O)cc2)c1 | 55.2 nM | 
CCc1ccccc1NC(=O)CSc1nc2ccc(I)cc2c(=O)n1-c1ccc(S(N)(=O)=O)cc1 | 29.1 nM | IC50 (HepG2 [1]): 41 nM; IC50 (WI-38 [2]): 3140 nM; IC50 (MCF7 [3]): 31 nM; IC50 (HCT-116 [4]): 19 nM; IC50 (WI-38 [5]): 5710 nM; IC50 (MCF7 [6]): 3070 nM; IC50 (HCT-116 [7]): 1940 nM; IC50 (HepG2 [8]): 1780 nM
Cc1cc([N+](=O)[O-])ccc1NC(=O)CSc1nc2ccc(I)cc2c(=O)n1-c1ccc(S(N)(=O)=O)cc1 | 59.1 nM | 
NS(=O)(=O)c1ccc(-n2c(S)nc3ccc(I)cc3c2=O)cc1 | 2230 nM | 
NS(=O)(=O)c1ccc(-n2c(SCC(=O)Nc3ccc([N+](=O)[O-])cc3[N+](=O)[O-])nc3ccc(I)cc3c2=O)cc1 | 46.9 nM | 
Cc1cccc([N+](=O)[O-])c1NC(=O)CSc1nc2ccc(I)cc2c(=O)n1-c1ccc(S(N)(=O)=O)cc1 | 90.3 nM | 

Source: ChEMBL document CHEMBL4680266, “Iodoquinazolinones bearing benzenesulfonamide as human carbonic anhydrase I, II, IX and XII inhibitors: Synthesis, biological evaluation and radiosensitizing activity” (Eur J Med Chem, 2020)
